Results reported in PubChem BioAssay AID328 (DTP/NCI, 2004).
“And” between values parts separate entries of the source, which are not always exact repeats. Identical values can stand only once. Inconclusive results and toxic doses are left out.

Tested on: BDF1 mice, P388 leukemia ip, median survival T/C
Test: NCI In Vivo Anticancer Drug Screen. Data for tumor model P388 Leukemia (intraperitoneal) in B6D2F1 (BDF1) mice
Details: endpoint: median survival time, higher = longer survival
Method in brief: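 Mice carrying the transplantable tumour receive compound or vehicle. Survival is followed in each arm, and the treated measure is divided by the vehicle measure.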

[1] = dose: 100.0 mg/kg/injection, schedule: Q01DX009 (ip), vehicle: saline
[2] = dose: 100.0 mg/kg/injection, schedule: Q04DX003 (ip), vehicle: saline
[3] = dose: 200.0 mg/kg/injection, schedule: Q01DX009 (ip), vehicle: saline
[4] = dose: 200.0 mg/kg/injection, schedule: Q04DX003 (ip), vehicle: saline
[5] = dose: 50.0 mg/kg/injection, schedule: Q01DX009 (ip), vehicle: saline with Tween-80
[6] = dose: 100.0 mg/kg/injection, schedule: Q01DX009 (ip), vehicle: saline with Tween-80
[7] = dose: 200.0 mg/kg/injection, schedule: Q01DX009 (ip), vehicle: saline with Tween-80
[8] = dose: 50.0 mg/kg/injection, schedule: Q04DX003 (ip), vehicle: saline with Tween-80
[9] = dose: 100.0 mg/kg/injection, schedule: Q04DX003 (ip), vehicle: saline with Tween-80
[10] = dose: 6.25 mg/kg/injection, schedule: Q01DX009 (ip), vehicle: saline with Tween-80
[11] = dose: 12.5 mg/kg/injection, schedule: Q01DX009 (ip), vehicle: saline with Tween-80
[12] = dose: 25.0 mg/kg/injection, schedule: Q01DX009 (ip), vehicle: saline with Tween-80
[13] = dose: 100.0 mg/kg/injection, schedule: Q04DX003 (ip), vehicle: other
[14] = dose: 25.0 mg/kg/injection, schedule: Q01DX009 (ip), vehicle: saline

CCCCSCC(N)C(=O)OC (configuration not stated)
T/C [1]: 103 % of control | T/C [2]: 100 % of control | T/C [3]: 111 % of control | T/C [4]: 104 % of control | T/C (dose: 400.0 mg/kg/injection, schedule: Q01DX009 (ip), vehicle: saline): 106 % of control | T/C (dose: 400.0 mg/kg/injection, schedule: Q04DX003 (ip), vehicle: saline): 109 % of control

CC(C)(C)CC(C)(C)c1ccc(OCCOS(=O)(=O)c2cccc([N+](=O)[O-])c2)cc1
T/C [5]: 109 % of control | T/C [6]: 95 % of control | T/C [7]: 118 % of control

COc1cccc2c1CCCC2=O
T/C (dose: 50.0 mg/kg/injection, schedule: Q01DX009 (ip), vehicle: Klucel (hydroxypropylcellulose) (HPC)): 96 % of control | T/C (dose: 100.0 mg/kg/injection, schedule: Q01DX009 (ip), vehicle: Klucel (hydroxypropylcellulose) (HPC)): 104 % of control | T/C (dose: 200.0 mg/kg/injection, schedule: Q01DX009 (ip), vehicle: Klucel (hydroxypropylcellulose) (HPC)): 104 % of control

CC(Cl)(Cl)CC(O)(C(F)(F)F)C(F)(F)F
T/C [8]: 95 % of control | T/C [9]: 90 % of control | T/C (dose: 200.0 mg/kg/injection, schedule: Q04DX003 (ip), vehicle: saline with Tween-80): 90 % of control

CSc1nc(C)cc(=O)[nH]1
T/C [10]: 105 % of control | T/C [11]: 103 % of control | T/C [12]: 115 % of control | T/C [5]: 108 % of control

CC1(C(Cl)(Cl)Cl)C=CC(=O)C=C1
T/C [10]: 110 % of control | T/C [11]: 115 % of control | T/C [12]: 98 % of control | T/C [5]: 107 % of control

NC(N)=NCCCCCC(=O)O
T/C [2]: 104 % of control | T/C [4]: 109 % of control | T/C (dose: 400.0 mg/kg/injection, schedule: Q01DX001 (ip), vehicle: saline): 87 % of control

CN(C)c1ccc(C=O)c(Oc2ccccc2)c1
T/C (dose: 12.5 mg/kg/injection, schedule: Q04DX003 (ip), vehicle: Klucel (hydroxypropylcellulose) (HPC)): 91 % of control | T/C (dose: 25.0 mg/kg/injection, schedule: Q04DX003 (ip), vehicle: Klucel (hydroxypropylcellulose) (HPC)): 108 % of control | T/C (dose: 50.0 mg/kg/injection, schedule: Q04DX003 (ip), vehicle: Klucel (hydroxypropylcellulose) (HPC)): 91 % of control | T/C (dose: 200.0 mg/kg/injection, schedule: Q04DX003 (ip), vehicle: Klucel (hydroxypropylcellulose) (HPC)): 100 % of control | T/C (dose: 400.0 mg/kg/injection, schedule: Q04DX003 (ip), vehicle: Klucel (hydroxypropylcellulose) (HPC)): 100 % of control

CC1([CH2][Hg][Cl])Cc2ccccc2O1 (configuration not stated)
T/C (dose: 1.56 mg/kg/injection, schedule: Q04DX003 (ip), vehicle: saline with Tween-80): 92 % of control | T/C (dose: 3.13 mg/kg/injection, schedule: Q04DX003 (ip), vehicle: saline with Tween-80): 88 % of control

CN(C)CCNC1=CC(=O)c2ccccc2C1=O
T/C (dose: 12.5 mg/kg/injection, schedule: Q01DX009 (ip), vehicle: water): 91 % of control | T/C (dose: 12.5 mg/kg/injection, schedule: Q04DX003 (ip), vehicle: water): 107 % of control | T/C (dose: 25.0 mg/kg/injection, schedule: Q01DX009 (ip), vehicle: water): 102 % of control | T/C (dose: 25.0 mg/kg/injection, schedule: Q04DX003 (ip), vehicle: water): 100 % of control | T/C (dose: 50.0 mg/kg/injection, schedule: Q01DX009 (ip), vehicle: water): 100 % of control | T/C (dose: 50.0 mg/kg/injection, schedule: Q04DX003 (ip), vehicle: water): 100 % of control | T/C (dose: 100.0 mg/kg/injection, schedule: Q01DX009 (ip), vehicle: water): 98 % of control | T/C (dose: 100.0 mg/kg/injection, schedule: Q04DX003 (ip), vehicle: water): 98 % of control | T/C (dose: 200.0 mg/kg/injection, schedule: Q01DX009 (ip), vehicle: water): 96 % of control and 105 % of control

O=C1CN(c2ccccc2)CC(=O)N2CCCN12
T/C (dose: 50.0 mg/kg/injection, schedule: Q01DX005 (ip), vehicle: saline with Tween-80): 92 % of control | T/C (dose: 200.0 mg/kg/injection, schedule: Q01DX005 (ip), vehicle: saline with Tween-80): 88 % of control

FC(F)(F)c1nc2nc(Cl)c(Cl)nc2[nH]1
T/C (dose: 10.0 mg/kg/injection, schedule: Q01DX009 (ip), vehicle: other): 100 % of control | T/C (dose: 20.0 mg/kg/injection, schedule: Q01DX009 (ip), vehicle: other): 109 % of control | T/C (dose: 26.6 mg/kg/injection, schedule: Q01DX009 (ip), vehicle: other): 120 % of control | T/C (dose: 44.0 mg/kg/injection, schedule: Q04DX003 (ip), vehicle: other): 118 % of control | T/C [13]: 150 % of control

Cc1ccc2c[n+]3cc4ccccc4cc3cc2c1
T/C (dose: 1.56 mg/kg/injection, schedule: Q01DX009 (ip), vehicle: saline): 113 % of control | T/C (dose: 4.5 mg/kg/injection, schedule: Q04DX003 (ip), vehicle: saline): 113 % of control | T/C (dose: 4.6 mg/kg/injection, schedule: Q01DX009 (ip), vehicle: saline): 150 % of control | T/C (dose: 9.0 mg/kg/injection, schedule: Q04DX003 (ip), vehicle: saline): 86 % of control

COc1ccc2[nH]c3c(C)c4cc[n+](C)cc4c(C)c3c2c1
T/C [10]: 99 % of control

CCN=C1N[N+]2=CCCCC2S1 (configuration not stated)
T/C (dose: 35.0 mg/kg/injection, schedule: Q01DX009 (ip), vehicle: saline): 111 % of control | T/C (dose: 140.0 mg/kg/injection, schedule: Q01DX009 (ip), vehicle: saline): 95 % of control

CCOC(=O)C(Cc1ccccc1Cl)(Cc1ccccc1Cl)c1ccccc1
T/C [6]: 106 % of control | T/C [7]: 100 % of control

Cc1cc(O)c2c(c1)OC1(C)CCC3C(C)(C)CCCC34COC2C14 (configuration not stated)
T/C (dose: 50.0 mg/kg/injection, schedule: Q01DX009 (ip), vehicle: other): 109 % of control | T/C (dose: 100.0 mg/kg/injection, schedule: Q01DX009 (ip), vehicle: other): 114 % of control | T/C (dose: 200.0 mg/kg/injection, schedule: Q01DX009 (ip), vehicle: other): 92 % of control and 110 % of control | T/C (dose: 400.0 mg/kg/injection, schedule: Q01DX009 (ip), vehicle: other): 101 % of control

COc1cc2cc(Oc3ccc4ccc(=O)oc4c3)c(=O)oc2cc1O
T/C (dose: 3.12 mg/kg/injection, schedule: Q01DX009 (ip), vehicle: carboxymethylcellulose (CMC)): 95 % of control | T/C (dose: 6.25 mg/kg/injection, schedule: Q01DX009 (ip), vehicle: carboxymethylcellulose (CMC)): 116 % of control | T/C (dose: 6.25 mg/kg/injection, schedule: Q01DX009 (ip), vehicle: saline + alcohol): 90 % of control | T/C (dose: 12.5 mg/kg/injection, schedule: Q01DX009 (ip), vehicle: carboxymethylcellulose (CMC)): 104 % of control | T/C (dose: 12.5 mg/kg/injection, schedule: Q01DX009 (ip), vehicle: saline + alcohol): 95 % of control | T/C (dose: 25.0 mg/kg/injection, schedule: Q01DX009 (ip), vehicle: carboxymethylcellulose (CMC)): 108 % of control | T/C (dose: 25.0 mg/kg/injection, schedule: Q01DX009 (ip), vehicle: saline + alcohol): 113 % of control

CCCCCCCCC1SC1CCCCCCCC(=O)OCCN(C)C(=O)CCCCCCCC1SC1CCCCCCCC (configuration not stated)
T/C [13]: 100 % of control | T/C (dose: 200.0 mg/kg/injection, schedule: Q04DX003 (ip), vehicle: other): 100 % of control | T/C (dose: 400.0 mg/kg/injection, schedule: Q04DX003 (ip), vehicle: other): 100 % of control

CC1NC(=O)OC1C(C)(C)C (configuration not stated)
T/C [11]: 88 % of control | T/C [12]: 98 % of control | T/C [5]: 86 % of control and 95 % of control

O=C(NC(NC(=O)c1ccc(Cl)cc1)C(Cl)(Cl)Cl)c1ccc(Cl)cc1
T/C (dose: 25.0 mg/kg/injection, schedule: Q04DX003 (ip), vehicle: saline with Tween-80): 90 % of control | T/C [8]: 86 % of control | T/C [9]: 90 % of control

C[N+]1(C)C2CC(=O)CC1C1CC12 (configuration not stated) (tested in a mixture with another compound)
T/C [14]: 99 % of control | T/C (dose: 50.0 mg/kg/injection, schedule: Q01DX009 (ip), vehicle: saline): 106 % of control | T/C [1]: 106 % of control | T/C [3]: 106 % of control

c1ccc(C[n+]2ccc3ccccc3c2)cc1
T/C (dose: 6.25 mg/kg/injection, schedule: Q01DX009 (ip), vehicle: saline): 100 % of control | T/C (dose: 12.5 mg/kg/injection, schedule: Q01DX009 (ip), vehicle: saline): 90 % of control | T/C (dose: 12.5 mg/kg/injection, schedule: Q04DX003 (ip), vehicle: saline): 95 % of control | T/C [14]: 118 % of control | T/C (dose: 25.0 mg/kg/injection, schedule: Q04DX003 (ip), vehicle: saline): 100 % of control
